# Measured values as given in patent US20040067507A1, “Liver inflammation predictive genes” (priority 2002, published 2004).
# Where two headings read alike, the source gives them in different places.
# Tested on: Sprague Dawley rats Crl:CD
# Assay type: in vivo, rat
# From the text: In addition to the database described and utilized herein, other toxicology gene expression databases may be generated, and used to identify additional liver toxicity biomarkers, which may also be employed in the practice of the liver inflammation prediction methods of the invention. […] An example of compounds, dose levels, liver toxicity classifications and histopathology scores used in the Examples which follow are provided in Table 1. The compounds and dose levels are abbreviated in the Abbreviation Column. The Inflammation Score relates the histopathology liver inflammation, a score of “2” or higher indicates histopathology of increasing severity.
# Identification of Correlating Genes: For the purpose of identifying candidate predictive genes, the database preferably includes histopathology scores for each animal which has been exposed to one or more agent(s). […] The scores are numerical scores that reflect the occurrence and severity of histopathological changes. These scores can be adjusted to have similar range to gene expression changes. […] Because the scores are numerical, they are suitable for use with a variety of statistical correlation and similarity measures.
# Sprague Dawley rats Crl:CD from Charles River, Raleigh, N.C. were divided into treated rats that receive a specific concentration of the compound (see Table 1) and the control rats that only received the vehicle in which the compound is mixed (e.g., saline).
# At specified timepoints (6 h, 24 h and 72 h) after administration (intraperitoneal route) of the compound, a set number of rats (usually 3 control and 3 treated) were euthanized and tissues collected. Each rat was heavily sedated with an overdose of CO2 by inhalation and a maximum amount of blood drawn. Exsanguination of the rat by this drawing of blood kills the rat. The method of collecting the tissues is very important and ensures preserving the quality of the mRNA in the tissues. The body of the rat was then opened up and prosectors rapidly removed the tissues (including liver) and immediately placed them into liquid nitrogen. […] The organs/tissues were then packaged into well-labeled plastic freezer quality bags and stored at −80 degrees until needed for isolation of the mRNA from a portion of the organ/tissue sample.
# Correlation with Histopathology Scores: Histopathology scores for each animal (assigned on a compound-dose basis as indicated in Table 1) were entered with gene expression data by using the GeneSpring™ ‘Drawn Gene’ function. Correlations between inflammation histopathology scores and gene expression were conducted with the distance measures listed below: […]
# [1] = 25 mg/kg i.p., 72 h, 1=no histopathology, 2 or higher=increasing severity
# [2] = 100 mg/kg i.p., 72 h, 1=no histopathology, 2 or higher=increasing severity
# [3] = Sprague Dawley Crl:CD, rat, in vivo
# [4] = 38 mg/kg i.p., 72 h, 1=no histopathology, 2 or higher=increasing severity
# [5] = 150 mg/kg i.p., 72 h, 1=no histopathology, 2 or higher=increasing severity
# [6] = 2 mg/kg i.p., 72 h, 1=no histopathology, 2 or higher=increasing severity
# [7] = 8 mg/kg i.p., 72 h, 1=no histopathology, 2 or higher=increasing severity
molecule,measurement,setting,value
C=C[C@H]1C[N@@]2CC[C@H]1C[C@@H]2[C@@H](O)c1ccnc2ccc(OC)cc12 [quinidine],Liver Inflammation,"25 mg/kg i.p., 72 h",no
same,Liver Necrosis,"25 mg/kg i.p., 72 h",no
same,Inflamm. Score,[1],1
same,Necr. Score,[1],1
same,Liver Inflammation,"100 mg/kg i.p., 72 h",no
same,Liver Necrosis,"100 mg/kg i.p., 72 h",no
same,Inflamm. Score,[2],1
same,Necr. Score,[2],1
CN(C)[C@@H]1C(O)=C(C(N)=O)C(=O)[C@@]2(O)C(O)=C3C(=O)c4c(O)cccc4[C@@](C)(O)[C@H]3C[C@@H]12 [tetracycline],Inflamm. Score,[3],1
same,Liver Inflammation,"rat, in vivo",no
Cn1c(=O)c2[nH]cnc2n(C)c1=O [theophylline],Inflamm. Score,[3],1
same,Necr. Score,[3],1
same,Liver Inflammation,"rat, in vivo",no
same,Liver Necrosis,"rat, in vivo",no
gentamicin,Liver Inflammation,"38 mg/kg i.p., 72 h",no
same,Liver Necrosis,"38 mg/kg i.p., 72 h",no
same,Inflamm. Score,[4],1
same,Necr. Score,[4],1
same,Liver Inflammation,"150 mg/kg i.p., 72 h",no
same,Liver Necrosis,"150 mg/kg i.p., 72 h",no
same,Inflamm. Score,[5],1
same,Necr. Score,[5],1
lipopolysaccharide,Liver Inflammation,"2 mg/kg i.p., 72 h",no
same,Liver Necrosis,"2 mg/kg i.p., 72 h",no
same,Inflamm. Score,[6],1
same,Necr. Score,[6],1
same,Liver Inflammation,"8 mg/kg i.p., 72 h",yes
same,Liver Necrosis,"8 mg/kg i.p., 72 h",yes
same,Inflamm. Score,[7],2
same,Necr. Score,[7],6
same,liver necrosis or necrosis with inflammation,high dose,produced liver necrosis or necrosis with inflammation
same,liver necrosis or necrosis with inflammation,low dose,not at the low dose
